Reference: patent US11446299B2, “Carbazole EHop-016 derivatives as anticancer and anti-migratory agents” (UNIVERSITY OF PUERTO RICO, priority 2017, dated 2022)

Tests used:
[1] = system: MDA-MB-231 breast cancer cells; assay: Wound healing assay (scratch method), cell migration; format: cell-based, human; conditions: Homo sapiens; percent relative migration at 10 μM after 24 h, relative to control, MDA-MB-231
Description: The experimental data of anti-migratory activities for compounds 3a-d and 4a-f were obtained using MDA-MB-231 breast cancer cells. For the migration assay, a wound-healing assay (scratch-wound assay) was utilized in the presence of vehicle (0.02% DMSO) or compounds at […].
Prior to assays, cells were grown until 80-90% confluence was observed. A 75 cm2 flask was used for 2.6×10^5 cells/mL in 10 mL and for a 25 cm2 flask 1.44×10^5 cells/mL in 5 mL. The cells were washed with PBS to remove all traces of FBS. 2 mL was added for a 25 cm2 flasks or 4 mL for a 75 cm2 flasks trypsin, and incubated 5-10 min at 37° C. At the end of the incubation time, cells were re-suspended and counted with hemocytometer using 1:2 dilutions with Trypan blue. Subsequently, cell viability was calculated. In a 12 multiwell plate, the plastic pattern was used to draw a fine space with a fine marker on the bottom of the plate. Cells were seeded at 1.5-2.2×10^5 cells/mL in 1 mL and incubated for 24 h. Cells were then rinsed with PBS and incubated in starving media (0.5% FBS) overnight. All controls and drugs were tested in triplicate. The negative control for each drug was prepared according to the drug's DMSO concentration.
Drugs were diluted and the final concentration at each well […]. The wound was made using a sterile pipette tip of […]. Cells were then rinsed very gently with media without FBS and media with negative controls was added. After a 24 h incubation, the gap distance was evaluated using the software Lumera Infinity Analyze 6.4.0. Pictures were taken at 0, 8, 12 and 24 h using a 10× objective. The percentage of migration was calculated using the following formula: 100−[(X0/X0)]*100 for time 0 h measurements 100−[(X24/X0)]*100 for time 24 h measurements
The experimental data of anti-migratory activities for compounds 3a-d and 4a-f were obtained using MDA-MB-231 breast cancer cells, and results are summarized in Table 1. For the migration assay, we used a wound-healing assay (scratch-wound assay)^22 in the presence of vehicle (0.02% DMSO) or compounds at 10 μM (FIG. 6). […] However, compounds 3a, 3c, and 4a-f inhibited migration in the range of 1-9%.
An additional example of a compounds with modification in building block C was synthesized via a different procedure as represented in Scheme 2B (see FIG. 11B). The compounds that were synthesized were tested for their biological activity by determination of their cytotoxicity in MDA-MB-231 breast cancer cell lines as shown in Table 5. The cytotoxicity's are expressed as IC50, which indicates the concentration at which 50% of the cell growth is inhibited. Furthermore, the inhibition of cell migration was tested at a concentration of 0.2×IC50, or, when the IC50 was >50 μM at a concentration of 10 μM. For comparison, Table 5 also includes the Lipinski and drug-likeness parameters as calculated via the MolSoft platform.
Migration assays were performed via the Scratch Method as described previously.

MCF-7 cancer cells = assay: Sulforhodamine B (SRB) growth inhibition assay; format: cell-based; conditions: Homo sapiens, MCF7, 24 h treatment, mean of triplicate, SD <10%
Description: (§1) Various compounds were tested to evaluate the dose response curve for effect on MCF-7 cancer cells and MDA-MB-231 cancer cells. MCF-7 and MDA-MB-231 cells were cultured in 10% Minimum Essential Medium Eagle (MEME) supplemented with Earle's Balanced Salt Solution (EBSS), Non-essential Amino acids (NEAA), Sodium pyruvate, Pen/Strep, L-glutamine and Fetal Bovine Serum (FBS) at 37° C. in 5% CO2.
(§2) Sulforhodamine B (SRB) Assay: A stock solution of compounds was prepared at 50 mM in 100% DMSO. For cells preparation, a flask of 75 cm^2 or 25 cm^2 were used for 2.6×10^5 cells or 1.44×10^5 cells respectively with an 80-90% of confluence. Cells were washed with PBS and trypsinized. The concentration of cells was determined using a 1:2 dilutions with Trypan Blue and a hemocytometer. After cell count, the concentration was adjusted to have a 1.9×10^4 cells/well. Approximately […] of cells suspension, compounds, control positive and control negative were added in triplicates to a 96 well plate. Positive controls used were ellipticine, doxorubicin, and/or vincristine, and the negative control was DMSO 0.1%. All compounds at 50, 25, 12.5, 6.3, and 1.6 μM were incubated with cells at 37° C. for 24 hrs. For fixation, cold TCA 50% was used and incubated at 4° C. for 1 hr. Wells were washed and dried prior to tincture with 100 μL of SRB 0.4%. To remove excess of SRB, acetic acid was used. For analysis, TRIS-BASE Solution (pH=10.5) was used and shacked prior to reading using an ELISA reader at 510 nm and the software SoftMax Pro 4.8.
(§3) For each compound, 50% growth inhibition (GI50) was calculated from Sigmoidal dose-response curves (variable-slope) that were generated with data obtained from experiments carried out in triplicates (GI50 values were generated with GraphPad Prism V. 6.02, GraphPad Software, Inc.). The results are presented in FIGS. 4A-4B (MCF-7 cancer cells) and FIGS. 5A-5B (MDA-MB-231 cancer cells).

MDA-MB-231 cancer cells = assay: Sulforhodamine B (SRB) growth inhibition assay; format: cell-based, human
Description: as §1, §2, §3

GI50 (MCF-7 cancer cells): > 50 µM | GI50 (MDA-MB-231 cancer cells; Homo sapiens, MDA-MB-231, SRB assay, 24 h treatment, mean of triplicate, SD <10%): > 50 µM
Structure (SMILES): CCn1c2ccccc2c2cc(C(=O)Nc3cccnc3N3CCOCC3)ccc21 [Compound 11b, 9-Ethyl-9H-carbazole-3-carboxylic Acid (2-morpholin-4-yl-pyridin-3-yl)-amide]
activity at 10 µM [1]: 66 ± 7.43% | anti-proliferative activity / cytotoxicity in words (MDA-MB-231 cancer cells; MDA-MB-231, concentrations ≤50 μM): minimal cytotoxicity
